Assay results from PubChem BioAssay AID248 (DTP/NCI, 2004).
Several values for one entry are separate records, joined by “and”; a condition that tells them apart may be missing. Equal entries are not always repeated. Inconclusive results and toxic doses are left out.

Tested on: L1210 leukemia ip in BDF1 mice, survival T/C
Assay: NCI In Vivo Anticancer Drug Screen. Data for tumor model L1210 Leukemia (intraperitoneal) in B6D2F1 (BDF1) mice
Conditions: endpoint: mean survival time, higher = longer survival
Outline: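 Value reflects the ratio of survival in compound-treated mice to survival in vehicle-treated controls, with both groups carrying the same transplanted tumor.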

[1] = dose: 12.5 mg/kg/injection, schedule: Q01DX009 (ip), vehicle: saline with Tween-80
[2] = dose: 100.0 mg/kg/injection, schedule: Q01DX001 (ip), vehicle: saline with Tween-80
[3] = dose: 200.0 mg/kg/injection, schedule: Q01DX001 (ip), vehicle: saline with Tween-80
[4] = dose: 400.0 mg/kg/injection, schedule: Q01DX001 (ip), vehicle: saline with Tween-80

For C#CC1(O)CCC2C3CCc4cc(OC)ccc4C3CCC21C (configuration not stated), the T/C (dose: 10.0 mg/kg/injection, schedule: Q01DX009 (sc), vehicle: saline with Tween-80) was 102 % of control, the T/C (dose: 100.0 mg/kg/injection, schedule: Q04DX003 (sc), vehicle: olive oil, sesame oil, peanut oil) was 102 % of control and the T/C (dose: 200.0 mg/kg/injection, schedule: Q01DX009 (sc), vehicle: saline with Tween-80) was 98 % of control. The T/C (dose: 200.0 mg/kg/injection, schedule: Q04DX003 (sc), vehicle: olive oil, sesame oil, peanut oil) was 102 % of control, the T/C (dose: 400.0 mg/kg/injection, schedule: Q01DX009 (sc), vehicle: saline with Tween-80) was 96 % of control and the T/C (dose: 400.0 mg/kg/injection, schedule: Q04DX003 (sc), vehicle: olive oil, sesame oil, peanut oil) was 100 % of control.

For CC1(C)CN(Cc2ccccc2)C(C)(C)CN1N, the T/C (dose: 6.25 mg/kg/injection, schedule: Q01DX009 (ip), vehicle: saline with Tween-80) was 96 % of control, the T/C [1] was 100 % of control and the T/C (dose: 25.0 mg/kg/injection, schedule: Q01DX009 (ip), vehicle: saline with Tween-80) was 102 % of control. The T/C (dose: 25.0 mg/kg/injection, schedule: Q04DX003 (ip), vehicle: saline with Tween-80) was 105 % of control, the T/C (dose: 50.0 mg/kg/injection, schedule: Q04DX003 (ip), vehicle: saline with Tween-80) was 102 % of control and the T/C (dose: 100.0 mg/kg/injection, schedule: Q04DX003 (ip), vehicle: saline with Tween-80) was 113 % of control.

In the case of C=C1C(=O)O[C@@H]2CC(C)=C3CC[C@@](C)(O)[C@@H]3C[C@H]12, the T/C (dose: 75.0 mg/kg/injection, schedule: Q04DX003 (ip), vehicle: Klucel (hydroxypropylcellulose) (HPC)) is reported as 106 % of control, the T/C (dose: 150.0 mg/kg/injection, schedule: Q04DX003 (ip), vehicle: Klucel (hydroxypropylcellulose) (HPC)) is reported as 102 % of control and the T/C (dose: 300.0 mg/kg/injection, schedule: Q04DX003 (ip), vehicle: Klucel (hydroxypropylcellulose) (HPC)) is reported as 98 % of control. The T/C (dose: 600.0 mg/kg/injection, schedule: Q04DX003 (ip), vehicle: Klucel (hydroxypropylcellulose) (HPC)) was 94 % of control.

For NC(=O)COc1ccc2ccccc2c1Cl, the T/C (dose: 100.0 mg/kg/injection, schedule: Q04DX002 (ip), vehicle: Klucel (hydroxypropylcellulose) (HPC)) was 96 % of control and the T/C (dose: 200.0 mg/kg/injection, schedule: Q04DX002 (ip), vehicle: Klucel (hydroxypropylcellulose) (HPC)) was 89 % of control.

With CC(Cc1ccccc1)N1C(=O)C=CC1=O (configuration not stated) the T/C (dose: 3.12 mg/kg/injection, schedule: Q01DX009 (ip), vehicle: Klucel (hydroxypropylcellulose) (HPC)) was 92 % of control, the T/C (dose: 6.25 mg/kg/injection, schedule: Q01DX009 (ip), vehicle: Klucel (hydroxypropylcellulose) (HPC)) was 101 % of control and the T/C (dose: 12.5 mg/kg/injection, schedule: Q01DX009 (ip), vehicle: Klucel (hydroxypropylcellulose) (HPC)) was 93 % of control and 90 % of control.

In the case of COC(=O)c1cc(I)cc(I)c1N, the T/C [2] is reported as 98 % of control, the T/C [3] is reported as 98 % of control and the T/C [4] is reported as 100 % of control.

In the case of Cc1c2ccccc2c(CSC(=N)N)c2ccccc12, the T/C (dose: 4.0 mg/kg/injection, schedule: Q01DX009 (ip), vehicle: saline sonified) is reported as 119 % of control, the T/C (dose: 4.0 mg/kg/injection, schedule: Q01DX009 (ip), vehicle: saline with Tween-80) is reported as 112 % of control and the T/C (dose: 4.0 mg/kg/injection, schedule: Q01DX009 (ip), vehicle: saline) is reported as 120 % of control. For the same molecule, the T/C (dose: 6.25 mg/kg/injection, schedule: Q01DX009 (ip), vehicle: saline) was 109 % of control, the T/C (dose: 6.25 mg/kg/injection, schedule: Q04DX003 (ip), vehicle: saline) was 98 % of control and the T/C (dose: 8.0 mg/kg/injection, schedule: Q01DX009 (ip), vehicle: saline sonified) was 117 % of control. The T/C (dose: 8.0 mg/kg/injection, schedule: Q01DX009 (ip), vehicle: saline with Tween-80) was 119 % of control, the T/C (dose: 12.5 mg/kg/injection, schedule: Q01DX009 (ip), vehicle: saline sonified) was 150 % of control and the T/C [1] was 108 % of control. For the same molecule, the T/C (dose: 12.5 mg/kg/injection, schedule: Q01DX009 (ip), vehicle: saline) was 123 % of control, the T/C (dose: 12.5 mg/kg/injection, schedule: Q04DX003 (ip), vehicle: saline) was 108 % of control and the T/C (dose: 18.75 mg/kg/injection, schedule: Q01DX009 (ip), vehicle: saline sonified) was 95 % of control. The T/C (dose: 18.75 mg/kg/injection, schedule: Q01DX009 (ip), vehicle: saline with Tween-80) was 87 % of control, the T/C (dose: 25.0 mg/kg/injection, schedule: Q01DX009 (ip), vehicle: saline) was 93 % of control and the T/C (dose: 25.0 mg/kg/injection, schedule: Q04DX003 (ip), vehicle: saline) was 114 % of control and 118 % of control.

With CCC(/C=C\C(C)C1CCC2C3C=CC45CC4CCC5(C)C3CCC12C)C(C)C (configuration not stated) the T/C [2] was 96 % of control, the T/C [3] was 89 % of control and the T/C [4] was 86 % of control.
